Measurements from article PMC7058083, “Structural basis of ligand binding modes at the human formyl peptide receptor 2” (Nature Communications, 2020).
Where a chain is given by its changes, count along the chain named. Residues, ends and D or L forms follow the SMILES beside them. *: point of attachment. For = O=C*

Columns and labels:
[1] = molecular target: T1, wild-type (WT) and mutant FPR2 (Homo sapiens, UniProt P25090, V160A); test: Saturation binding of WK(FITC)YMVm, flow cytometry on HEK293F cells; details: FPR2 V160A
T1 construct: expressed in transfected cells; host or cells: HEK293F
T1 sequence (P25090 1-351 V160A): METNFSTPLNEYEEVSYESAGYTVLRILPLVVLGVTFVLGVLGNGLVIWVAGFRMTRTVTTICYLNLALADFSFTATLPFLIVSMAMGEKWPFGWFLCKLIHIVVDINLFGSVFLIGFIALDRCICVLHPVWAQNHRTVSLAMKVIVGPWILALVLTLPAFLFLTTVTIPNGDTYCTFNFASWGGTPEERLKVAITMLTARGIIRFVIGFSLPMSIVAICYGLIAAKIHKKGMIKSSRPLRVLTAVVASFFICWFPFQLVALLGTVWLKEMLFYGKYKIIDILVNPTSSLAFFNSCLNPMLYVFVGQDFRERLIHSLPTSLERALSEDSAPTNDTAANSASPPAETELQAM
Procedure: (§1) Flag-tagged wild-type and mutant FPR2s were cloned into the pTT5 vector and expressed in HEK293F cells. The cells were harvested, and washed with Hanks’ Balanced Salt Solution (HBSS) buffer supplemented with 0.5% bovine serum albumin and 20 mM HEPES, pH 7.4. The cells were then resuspended in the same buffer to the final concentration of 1 × 10^6 cells per ml. The cell-surface expression was measured as mentioned above. […] Mean fluorescent intensity of each well was then read by a FCM (flow cytometry) reader (Millipore). […] For competitive binding of fMLFK, cells were plated in 96-well plates (100,000 cells per well), and incubated with WK(FITC)YMVm at 4 °C for 1 h. The following concentrations of WK(FITC)YMVm were used: 10 nM (wild type, L81^2.60F, E89G, and V105^3.32A), 30 nM (D281^7.32G), 40 nM (H102^3.29F, V160^4.60A, L268^ECL3A, N285^7.36A, and F292^7.43A), and 100 nM (L164^4.64A and T177A). Then increasing concentrations of fMLFK (100 nM–1 mM) were added, and incubated for another 1 h on ice. Mean fluorescent intensity values were measured by flow cytometry. Data were analyzed using Prism 7.0.

[2] = molecular target: T2, wild-type (WT) and mutant FPR2 (Homo sapiens, UniProt P25090, L164A); test: as above; details: FPR2 L164A
T2 construct: expressed in transfected cells; host or cells: HEK293F
T2 sequence (P25090 1-351 L164A): T1 sequence (P25090 1-351 V160A) with A160V, L164A
Procedure: as §1

[3] = molecular target: T3, wild-type (WT) and mutant FPR2 (Homo sapiens, UniProt P25090, L268A); test: as above; details: FPR2 L268A
T3 construct: expressed in transfected cells; host or cells: HEK293F
T3 sequence (P25090 1-351 L268A): T1 sequence (P25090 1-351 V160A) with A160V, L268A
Procedure: as §1

[4] = molecular target: T4, wild-type (WT) and mutant FPR2 (Homo sapiens, UniProt P25090, L198F); test: as above; details: FPR2 L198F
T4 construct: expressed in transfected cells; host or cells: HEK293F
Procedure: as §1

[5] = tested on: wild-type (WT) and mutant FPR2; test: as above; parameters: species or system human
Procedure: as §1

[6] = molecular target: T5, wild-type (WT) and mutant FPR2 (Homo sapiens, UniProt P25090, N285A); test: as above; details: FPR2 N285A
T5 construct: expressed in transfected cells; host or cells: HEK293F
T5 sequence (P25090 1-351 N285A): T1 sequence (P25090 1-351 V160A) with A160V, N285A
Procedure: as §1

[7] = molecular target: T2, wild-type (WT) and mutant FPR2; test: Competition binding of fMLFK with WK(FITC)YMVm, flow cytometry on HEK293F cells; details: FPR2 L164A; mean ± s.e.m., n=3; SEM
Procedure: as §1

[8] = molecular target: T6, wild-type (WT) and mutant FPR2 (Homo sapiens, UniProt P25090, V105A); test: as above; details: FPR2 V105A; mean ± s.e.m., n=3; SEM
T6 construct: expressed in transfected cells; host or cells: HEK293F
T6 sequence (P25090 1-351 V105A): T1 sequence (P25090 1-351 V160A) with V105A, A160V
Procedure: as §1

T4 sequence (P25090 whole entry L198F): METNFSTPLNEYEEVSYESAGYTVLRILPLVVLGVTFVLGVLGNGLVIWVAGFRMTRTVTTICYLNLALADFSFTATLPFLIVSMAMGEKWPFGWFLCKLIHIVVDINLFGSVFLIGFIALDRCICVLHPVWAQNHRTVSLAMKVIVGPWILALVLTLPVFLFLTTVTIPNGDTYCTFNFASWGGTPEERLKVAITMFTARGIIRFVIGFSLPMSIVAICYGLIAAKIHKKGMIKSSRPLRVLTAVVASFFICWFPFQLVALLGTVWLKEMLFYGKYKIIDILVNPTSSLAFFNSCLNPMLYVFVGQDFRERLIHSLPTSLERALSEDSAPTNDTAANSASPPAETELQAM

In the case of `CSCC[C@H](NC(=O)[C@H](Cc1ccc(O)cc1)NC(=O)[C@H](CCCCNC(=S)Nc1ccc2c(c1)C(=O)OC21c2ccc(O)cc2Oc2cc(O)ccc21)NC(=O)[C@@H](N)Cc1c[nH]c2ccccc12)C(=O)N[C@H](C(=O)N[C@H](CCSC)C(N)=O)C(C)C` [WK(FITC)YMVm], the “Span (% of WT), saturation binding” value [1] is reported as 30 ± 4 % of WT, the Kd ([1]; mean ± s.e.m., n=4, SEM) is reported as 36.1 ± 18.1 nM and the “Span (% of WT), saturation binding” value [2] is reported as 85 ± 13 % of WT. For the same compound, the Kd ([2]; mean ± s.e.m., n=3, SEM) was 92.2 ± 25.1 nM, the “Span (% of WT), saturation binding” value [3] was 76 ± 7 % of WT and the Kd ([3]; mean ± s.e.m., n=3, SEM) was 28.0 ± 10.0 nM. The “Span (% of WT), saturation binding” value [4] was 60 ± 9 % of WT, the Kd ([4]; mean ± s.e.m., n=3, SEM) was 21.4 ± 5.3 nM and the “reduction of binding affinity of WK(FITC)YMVm” value ([5]; mutant F257Y vs WT) was 7 fold. For the same compound, the “binding of WK(FITC)YMVm” value ([5]; mutants D281G and D281L) was “decreased binding”, the “binding of WK(FITC)YMVm” value ([5]; mutations D106A and R201A) was “significantly impaired” and the “binding of FPR2 to WK(FITC)YMVm” value ([5]; mutations V105F, L109A, F110A, V113A, L164W, F178A, F180A, W254A, F257A and M271A) was “abolish the binding”. For the same compound, the “Span (% of WT), saturation binding” value [6] was 85 ± 13 % of WT and the Kd ([6]; mean ± s.e.m., n=4, SEM) was 43.3 ± 15.3 nM.
With `CSCC[C@H](NC=O)C(=O)N[C@@H](CC(C)C)C(=O)N[C@@H](Cc1ccccc1)C(=O)N[C@@H](CCCCN)C(=O)O` [fMLFK] (For-MLFK-OH) the “pKi, competition binding” value [7] was 4.16 ± 0.25 and the “pKi, competition binding” value [8] was 4.56 ± 0.21.
